ChEMBL document CHEMBL4257468, “Synthesis and biological evaluation of rapamycin-derived, next generation small molecules” (Medchemcomm, 2018)

What was measured:
Saccharomyces cerevisiae = test: Inhibition of FKBP12 in yeast assessed as reduction in cell proliferation
[1] = target: T1, Peptidyl-prolyl cis-trans isomerase FKBP1A (Homo sapiens, UniProt P62942); test: Inhibition of recombinant human FKBP12 expressed in Escherichia coli using succinyl-Ala-Phe-Pro-Phe-4-nitroanilide as substrate measured after 5 to 10 mins by spectrophotometric method
[2] = target: T1, Peptidyl-prolyl cis-trans isomerase FKBP1A; test: Inhibition of [3H]-FK506 binding to recombinant human His6-tagged FKBP12 pretreated for 10 mins followed by [3H]-FK506 addition and measured after 1.5 hrs by microbeta scintillation counting method
[3] = Apparent terminal half life in Sprague-Dawley rat at 2.5 mg/kg, iv administered as bolus dose by mass spectrometric analysis; type: ADME, organism-based; settings: in vivo, read-out: betat1/2(app) (converted)
[4] = Half life in human administered as oral dose; type: ADME, organism-based; settings: in vivo

T1 sequence (P62942 whole entry): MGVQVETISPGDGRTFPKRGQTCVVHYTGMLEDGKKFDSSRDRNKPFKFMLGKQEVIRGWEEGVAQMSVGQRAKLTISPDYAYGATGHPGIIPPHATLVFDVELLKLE

Compound	IC12 (Saccharomyces cerevisiae) [nM]	Ki [1] [nM]	IC50 [2] [nM]	half-life [3] [h]	half-life [4] [h]
CO[C@@H]1C[C@H](C[C@@H](C)[C@@H]2CC(=O)[C@H](C)/C=C(\C)[C@@H](O)[C@@H](OC)C(=O)[C@H](C)C[C@H](C)/C=C/C=C/C=C(\C)[C@@H](SC)C[C@@H]3CC[C@@H](C)[C@@](O)(O3)C(=O)C(=O)N3CCCC[C@H]3C(=O)O2)CC[C@H]1O	4				
CO[C@@H]1C[C@H](C[C@@H](C)[C@@H]2CC(=O)[C@H](C)/C=C(\C)[C@@H](O)[C@@H](OC)C(=O)[C@H](C)C[C@H](C)/C=C/C=C/C=C(\C)[C@@H](OCc3ccccc3)C[C@@H]3CC[C@@H](C)[C@@](O)(O3)C(=O)C(=O)N3CCCC[C@H]3C(=O)O2)CC[C@H]1O	6	5			
CO[C@H]1C[C@@H]2CC[C@@H](C)[C@@](O)(O2)C(=O)C(=O)N2CCSC[C@H]2C(=O)O[C@H]([C@H](C)C[C@@H]2CC[C@@H](O)[C@H](OC)C2)CC(=O)[C@H](C)/C=C(\C)[C@@H](O)[C@@H](OC)C(=O)[C@H](C)C[C@H](C)/C=C/C=C/C=C/1C			53.6		
COc1ccc([C@@H]2C[C@@H]3CC[C@@H](C)[C@@](O)(O3)C(=O)C(=O)N3CCCC[C@H]3C(=O)O[C@H]([C@H](C)C[C@@H]3CC[C@@H](O)[C@H](OC)C3)CC(=O)[C@H](C)/C=C(\C)[C@@H](O)[C@@H](OC)C(=O)[C@H](C)C[C@H](C)/C=C/C=C/C=C/2C)c(OC)c1	400	38			
CO[C@@H]1C[C@H](C[C@@H](C)[C@@H]2CC(=O)[C@H](C)/C=C(\C)[C@@H](O)[C@@H](OC)C(=O)[C@H](C)C[C@H](C)/C=C/C=C/C=C(\C)[C@@H](c3ccc[nH]3)C[C@@H]3CC[C@@H](C)[C@@](O)(O3)C(=O)C(=O)N3CCCC[C@H]3C(=O)O2)CC[C@H]1O	28	10			
CCO[C@H]1C[C@@H]2CC[C@@H](C)[C@@](O)(O2)C(=O)C(=O)N2CCCC[C@H]2C(=O)O[C@H]([C@H](C)C[C@@H]2CC[C@@H](O)[C@H](OC)C2)CC(=O)[C@H](C)/C=C(\C)[C@@H](O)[C@@H](OC)C(=O)[C@H](C)C[C@H](C)/C=C/C=C/C=C/1C	10	3.5			
CO[C@@H]1C[C@H](C[C@@H](C)[C@@H]2CC(=O)[C@H](C)/C=C(\C)[C@@H](O)[C@@H](OC)C(=O)[C@H](C)C[C@H](C)/C=C/C=C/C=C(\C)[C@@H](OCc3ccc(Cl)cc3)C[C@@H]3CC[C@@H](C)[C@@](O)(O3)C(=O)C(=O)N3CCCC[C@H]3C(=O)O2)CC[C@H]1O	6	1			
CO[C@@H]1C[C@H](C[C@@H](C)[C@@H]2CC(=O)[C@H](C)/C=C(\C)[C@@H](O)[C@@H](OC)C(=O)[C@H](C)C[C@H](C)/C=C/C=C/C=C(\C)[C@@H](c3ccco3)C[C@@H]3CC[C@@H](C)[C@@](O)(O3)C(=O)C(=O)N3CCCC[C@H]3C(=O)O2)CC[C@H]1O	12.5	3			
COc1ccc([C@H]2C[C@@H]3CC[C@@H](C)[C@@](O)(O3)C(=O)C(=O)N3CCCC[C@H]3C(=O)O[C@H]([C@H](C)C[C@@H]3CC[C@@H](O)[C@H](OC)C3)CC(=O)[C@H](C)/C=C(\C)[C@@H](O)[C@@H](OC)C(=O)[C@H](C)C[C@H](C)/C=C/C=C/C=C/2C)c(OC)c1	225	9			
CO[C@@H]1C[C@H](C[C@@H](C)[C@@H]2CC(=O)[C@H](C)/C=C(\C)[C@@H](O)[C@@H](OC)C(=O)[C@H](C)C[C@H](C)/C=C/C=C/C=C(\C)[C@H](SC)C[C@@H]3CC[C@@H](C)[C@@](O)(O3)C(=O)C(=O)N3CCCC[C@H]3C(=O)O2)CC[C@H]1O	4				
COC(=O)N[C@@H]1C[C@@H]2CC[C@@H](C)[C@@](O)(O2)C(=O)C(=O)N2CCCC[C@H]2C(=O)O[C@H]([C@H](C)C[C@@H]2CC[C@@H](O)[C@H](OC)C2)CC(=O)[C@H](C)/C=C(\C)[C@@H](O)[C@@H](OC)C(=O)[C@H](C)C[C@H](C)/C=C/C=C/C=C/1C	220	3.7			
CO[C@H]1C[C@@H]2CC[C@@H](C)[C@@](O)(O2)C(=O)C(=O)N2CCCC[C@H]2C(=O)O[C@H]([C@H](C)C[C@@H]2CC[C@@H](O)[C@H](OC)C2)CC(=O)[C@H](C)/C=C(\C)[C@@H](O)[C@@H](OC)C(=O)[C@H](C)C[C@H](C)/C=C/C=C/C=C/1C [SIROLIMUS]	7			14	62 to 82
CO[C@@H]1C[C@H](C[C@@H](C)[C@@H]2CC(=O)[C@H](C)/C=C(\C)[C@@H](O)[C@@H](OC)C(=O)[C@H](C)C[C@H](C)/C=C/C=C/C=C(\C)[C@H](c3ccco3)C[C@@H]3CC[C@@H](C)[C@@](O)(O3)C(=O)C(=O)N3CCCC[C@H]3C(=O)O2)CC[C@H]1O	3	6			
CO[C@@H]1C[C@H](C[C@@H](C)[C@@H]2CC(=O)[C@H](C)/C=C(\C)[C@@H](O)[C@@H](OC)C(=O)[C@H](C)C[C@H](C)/C=C/C=C/C=C(\C)[C@H](c3ccc[nH]3)C[C@@H]3CC[C@@H](C)[C@@](O)(O3)C(=O)C(=O)N3CCCC[C@H]3C(=O)O2)CC[C@H]1O	28	1.5			
CO[C@@H]1C[C@H](C[C@@H](C)[C@@H]2CC(=O)[C@H](C)/C=C(\C)[C@@H](O)[C@@H](OC)C(=O)[C@H](C)C[C@H](C)/C=C/C=C/C=C(\C)CC[C@@H]3CC[C@@H](C)[C@@](O)(O3)C(=O)C(=O)N3CCCC[C@H]3C(=O)O2)CC[C@H]1O	8				
CO[C@H]1C[C@@H]2CC[C@@H](C)[C@@](O)(O2)C(=O)C(=O)N2CCCC[C@H]2C(=O)O[C@H]([C@H](C)C[C@@H]2CC[C@H](n3cnnn3)[C@H](OC)C2)CC(=O)[C@H](C)/C=C(\C)[C@@H](O)[C@@H](OC)C(=O)[C@H](C)C[C@H](C)/C=C/C=C/C=C/1C [ZOTAROLIMUS]				9.4	
CO[C@@H]1C[C@H](C[C@@H](C)[C@@H]2CC(=O)[C@H](C)/C=C(\C)[C@@H](O)[C@@H](OC)C(=O)[C@H](C)C[C@H](C)/C=C/C=C/C=C(\C)C(=O)C[C@@H]3CC[C@@H](C)[C@@](O)(O3)C(=O)C(=O)N3CCCC[C@H]3C(=O)O2)CC[C@H]1O	210	29			
CO[C@@H]1C[C@@H]2CC[C@@H](C)[C@@](O)(O2)C(=O)C(=O)N2CCCC[C@H]2C(=O)O[C@H]([C@H](C)C[C@@H]2CC[C@@H](O)[C@H](OC)C2)CC(=O)[C@H](C)/C=C(\C)[C@@H](O)[C@@H](OC)C(=O)[C@H](C)C[C@H](C)/C=C/C=C/C=C/1C	20				
COc1cc(OC)c([C@@H]2C[C@@H]3CC[C@@H](C)[C@@](O)(O3)C(=O)C(=O)N3CCCC[C@H]3C(=O)O[C@H]([C@H](C)C[C@@H]3CC[C@@H](O)[C@H](OC)C3)CC(=O)[C@H](C)/C=C(\C)[C@@H](O)[C@@H](OC)C(=O)[C@H](C)C[C@H](C)/C=C/C=C/C=C/2C)c(OC)c1	> 1000	7			
COC(=O)N[C@H]1C[C@@H]2CC[C@@H](C)[C@@](O)(O2)C(=O)C(=O)N2CCCC[C@H]2C(=O)O[C@H]([C@H](C)C[C@@H]2CC[C@@H](O)[C@H](OC)C2)CC(=O)[C@H](C)/C=C(\C)[C@@H](O)[C@@H](OC)C(=O)[C@H](C)C[C@H](C)/C=C/C=C/C=C/1C	170	4.5			
CO[C@@H]1C[C@H](C[C@@H](C)[C@@H]2CC(=O)[C@H](C)/C=C(\C)[C@@H](O)[C@@H](OC)C(=O)[C@H](C)C[C@H](C)/C=C/C=C/C=C(\C)[C@@H](OCc3cccc([N+](=O)[O-])c3)C[C@@H]3CC[C@@H](C)[C@@](O)(O3)C(=O)C(=O)N3CCCC[C@H]3C(=O)O2)CC[C@H]1O	20	7			
